According to PubChem BioAssay (NCI):
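Interpolation was linear, between the two tested concentrations surrounding the appropriate level; five concentrations were tested over 48 hours in 96-well plates. The concentration for 50% growth inhibition is given as GI50. TGI: concentration producing complete growth inhibition.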

Tests used:
Assay in all cases: NCI tumour cell line growth inhibition, 48 h
CAKI-1 renal = tested on: CAKI-1 renal
EKVX NSCLC = tested on: EKVX NSCLC
IGROV1 ovarian = tested on: IGROV1 ovarian
NCI-H460 lung = tested on: NCI-H460 lung
UACC-62 melanoma = tested on: UACC-62 melanoma
RPMI-8226 leukemia = tested on: RPMI-8226 leukemia
LOX IMVI melanoma = tested on: LOX IMVI melanoma
OVCAR-4 ovarian = tested on: OVCAR-4 ovarian
SW-620 colon = tested on: SW-620 colon
HOP-62 NSCLC = tested on: HOP-62 NSCLC
MOLT-4 leukemia = tested on: MOLT-4 leukemia
HOP-92 NSCLC = tested on: HOP-92 NSCLC
DU-145 prostate = tested on: DU-145 prostate
SK-MEL-5 melanoma = tested on: SK-MEL-5 melanoma
MCF7 breast = tested on: MCF7 breast
M14 melanoma = tested on: M14 melanoma
HT29 colon = tested on: HT29 colon
A498 renal = tested on: A498 renal
SNB-75 CNS = tested on: SNB-75 CNS
BT-549 breast = tested on: BT-549 breast
HCC-2998 colon = tested on: HCC-2998 colon
NCI-H226 lung = tested on: NCI-H226 lung
UACC-257 melanoma = tested on: UACC-257 melanoma
A549 NSCLC = tested on: A549 NSCLC
NCI/ADR-RES ovarian = tested on: NCI/ADR-RES ovarian
MALME-3M melanoma = tested on: MALME-3M melanoma
SF-539 CNS = tested on: SF-539 CNS
SF-295 CNS = tested on: SF-295 CNS
HCT-116 colon = tested on: HCT-116 colon
NCI-H23 lung = tested on: NCI-H23 lung
OVCAR-5 ovarian = tested on: OVCAR-5 ovarian
MDA-MB-435 = tested on: MDA-MB-435
MDA-MB-231 breast = tested on: MDA-MB-231 breast
SK-MEL-28 melanoma = tested on: SK-MEL-28 melanoma
PC-3 prostate = tested on: PC-3 prostate
U251 CNS = tested on: U251 CNS
HCT-15 colon = tested on: HCT-15 colon
TK-10 renal = tested on: TK-10 renal
786-0 renal = tested on: 786-0 renal
ACHN renal = tested on: ACHN renal
SK-OV-3 ovarian = tested on: SK-OV-3 ovarian
SF-268 CNS = tested on: SF-268 CNS
SNB-19 CNS = tested on: SNB-19 CNS
KM12 colon = tested on: KM12 colon
OVCAR-8 ovarian = tested on: OVCAR-8 ovarian
SN12C renal = tested on: SN12C renal
NCI-H522 lung = tested on: NCI-H522 lung
COLO 205 colon = tested on: COLO 205 colon
HS 578T breast = tested on: HS 578T breast
HL-60(TB) leukemia = tested on: HL-60(TB) leukemia
T-47D breast = tested on: T-47D breast
CCRF-CEM leukemia = tested on: CCRF-CEM leukemia
OVCAR-3 ovarian = tested on: OVCAR-3 ovarian
K-562 leukemia = tested on: K-562 leukemia
SR leukemia = tested on: SR leukemia
UO-31 renal = tested on: UO-31 renal
SK-MEL-2 melanoma = tested on: SK-MEL-2 melanoma

C/C(=C(\c1ccc(O)cc1)c1ccc(OCCN2CCCCCC2)cc1)c1ccc(Cl)cc1
GI50 (CAKI-1 renal): 5.39 µM | TGI (CAKI-1 renal): 11 µM | GI50 (EKVX NSCLC): 6.67 µM | TGI (EKVX NSCLC): 12.8 µM | GI50 (IGROV1 ovarian): 5.79 µM | TGI (IGROV1 ovarian): 11.9 µM | GI50 (NCI-H460 lung): 2.2 µM | TGI (NCI-H460 lung): 7.27 µM | GI50 (UACC-62 melanoma): 6.35 µM | TGI (UACC-62 melanoma): 12.4 µM | GI50 (RPMI-8226 leukemia): 1.86 µM | TGI (RPMI-8226 leukemia): 31 µM | GI50 (LOX IMVI melanoma): 1.66 µM | TGI (LOX IMVI melanoma): 6.55 µM | GI50 (OVCAR-4 ovarian): 4.83 µM | TGI (OVCAR-4 ovarian): 10.6 µM | GI50 (SW-620 colon): 3.17 µM | TGI (SW-620 colon): 9.28 µM | GI50 (HOP-62 NSCLC): 7.03 µM | TGI (HOP-62 NSCLC): 15.7 µM | GI50 (MOLT-4 leukemia): 1.69 µM | TGI (MOLT-4 leukemia): 7.25 µM | GI50 (HOP-92 NSCLC): 2.07 µM | TGI (HOP-92 NSCLC): 9.62 µM | GI50 (DU-145 prostate): 7.05 µM | TGI (DU-145 prostate): 13.2 µM | GI50 (SK-MEL-5 melanoma): 6.48 µM | TGI (SK-MEL-5 melanoma): 12.5 µM | GI50 (MCF7 breast): 0.0385 µM | TGI (MCF7 breast): 3.81 µM | GI50 (M14 melanoma): 1.6 µM | TGI (M14 melanoma): 6.17 µM | GI50 (HT29 colon): 1.26 µM | TGI (HT29 colon): 4.59 µM | GI50 (A498 renal): 8.32 µM | TGI (A498 renal): 14.9 µM | GI50 (SNB-75 CNS): 6.02 µM | TGI (SNB-75 CNS): 12 µM | GI50 (BT-549 breast): 6.12 µM | TGI (BT-549 breast): 13 µM | GI50 (HCC-2998 colon): 2.43 µM | TGI (HCC-2998 colon): 8.05 µM | GI50 (NCI-H226 lung): 5.39 µM | TGI (NCI-H226 lung): 12.2 µM | GI50 (UACC-257 melanoma): 7.39 µM | TGI (UACC-257 melanoma): 14.8 µM | GI50 (A549 NSCLC): 6.27 µM | TGI (A549 NSCLC): 18.4 µM | GI50 (NCI/ADR-RES ovarian): 5.57 µM | TGI (NCI/ADR-RES ovarian): 11.5 µM | GI50 (MALME-3M melanoma): 4.52 µM | TGI (MALME-3M melanoma): 9.89 µM | GI50 (SF-539 CNS): 4.67 µM | TGI (SF-539 CNS): 10 µM | GI50 (SF-295 CNS): 4.79 µM | TGI (SF-295 CNS): 10.3 µM | GI50 (HCT-116 colon): 2.21 µM | TGI (HCT-116 colon): 9.11 µM | GI50 (NCI-H23 lung): 5.52 µM | TGI (NCI-H23 lung): 11.3 µM | GI50 (OVCAR-5 ovarian): 5.78 µM | TGI (OVCAR-5 ovarian): 11.5 µM | GI50 (MDA-MB-435): 5.36 µM | TGI (MDA-MB-435): 11.1 µM | GI50 (MDA-MB-231 breast): 7.02 µM | TGI (MDA-MB-231 breast): 13.3 µM | GI50 (SK-MEL-28 melanoma): 4.94 µM | TGI (SK-MEL-28 melanoma): 10.4 µM | GI50 (PC-3 prostate): 2.8 µM | TGI (PC-3 prostate): 11.1 µM | GI50 (U251 CNS): 3.28 µM | TGI (U251 CNS): 13.4 µM | GI50 (HCT-15 colon): 1.26 µM | TGI (HCT-15 colon): 3.95 µM | GI50 (TK-10 renal): 6.99 µM | TGI (TK-10 renal): 14 µM | GI50 (786-0 renal): 2.15 µM | TGI (786-0 renal): 8.4 µM | GI50 (ACHN renal): 5.26 µM | TGI (ACHN renal): 10.8 µM | GI50 (SK-OV-3 ovarian): 7.74 µM | TGI (SK-OV-3 ovarian): 15 µM | GI50 (SF-268 CNS): 5.8 µM | TGI (SF-268 CNS): 12.7 µM | GI50 (SNB-19 CNS): 6.27 µM | TGI (SNB-19 CNS): 12.3 µM | GI50 (KM12 colon): 3.37 µM | TGI (KM12 colon): 9.28 µM | GI50 (OVCAR-8 ovarian): 6.94 µM | TGI (OVCAR-8 ovarian): 13.7 µM | GI50 (SN12C renal): 5.86 µM | TGI (SN12C renal): 11.9 µM | GI50 (NCI-H522 lung): 7.43 µM | TGI (NCI-H522 lung): 15 µM | GI50 (COLO 205 colon): 1.21 µM | TGI (COLO 205 colon): 2.99 µM | GI50 (HS 578T breast): 5.06 µM | TGI (HS 578T breast): 14.1 µM | GI50 (HL-60(TB) leukemia): 5.98 µM | TGI (HL-60(TB) leukemia): 14.3 µM | GI50 (T-47D breast): 1.19 µM | TGI (T-47D breast): 11.1 µM | GI50 (CCRF-CEM leukemia): 10.8 µM | TGI (CCRF-CEM leukemia): 45.8 µM | GI50 (OVCAR-3 ovarian): 6.11 µM | TGI (OVCAR-3 ovarian): 12.1 µM | GI50 (K-562 leukemia): 1.32 µM | TGI (K-562 leukemia): 6.03 µM | GI50 (SR leukemia): 1.28 µM | TGI (SR leukemia): 4.7 µM | GI50 (UO-31 renal): 4.53 µM | TGI (UO-31 renal): 9.88 µM | GI50 (SK-MEL-2 melanoma): 7.59 µM | TGI (SK-MEL-2 melanoma): 14.5 µM
